Laboratory results from US10428134B2, “Immunoglobulins and uses thereof” (JANSSEN PHARMACEUTICA NV, priority 2016, dated 2019).
Marks after values point to notes of the source that are not given here.

Tests used:
[1] = OGTT after 8 days of treatment in DIO mice (glucose, insulin); type: in vivo, mouse; conditions: 0.3 nmol/kg s.c. every day
Method: (§1) Compound 1 was evaluated for its ability to reduce foot intake and body weight and improve glucose homeostasis on repeat dosing in male DIO C57Bl/6 mice over a period of 8 days. Male DIO C57BL/6N mice (20 weeks of age, 14 weeks on high fat diet) were obtained from Taconic Laboratory. […] Animals were acclimated to the facility for at least one week prior to the start of the experiment.
(§2) The day prior to dosing, mice were grouped based on individual body weights. At 3:00-4:00 pm for each of the next 8 days, animals and food intake were weighed. […] After 8 days, mice are fasted for 5 hours and then given a 2 g/kg bolus of glucose orally at t=0. At t=0, 30, 60, 90, and 120 minutes post glucose challenge blood glucose is measured and at t=0, 30, and 90 minutes blood in drawn to measure plasma insulin. […] All data are presented as the mean±SEM (FIGS. 8 and 9, and Tables 5-8).

[2] = target: T1, human GCGR (Homo sapiens, UniProt P47871); assay: human glucagon receptor cAMP assay; type: cell-based; conditions: HEK293 cells
T1 construct: expressed in transfected cells
Method: (§3) For each receptor assay, the clonal cells were seeded into 384-well plates at the appropriate densities ranging from 2000-5000 cells/per well. Compounds were diluted in HBSS supplemented with 5 mM HEPES, 0.1% BSA and 0.5 mM IBMX and added to the cells. […] Standard curves were included in each assay plate for back calculation of cAMP concentrations.

[3] = Single-dose efficacy in DIO mice: food intake, body weight
[4] = target: T2, mouse GCGR (Mus musculus, UniProt Q61606); assay: mouse glucagon receptor cAMP assay; type: cell-based; conditions: HEK293 cells
T2 construct: expressed in transfected cells
Method: as §3

[5] = Single-dose efficacy in DIO mice: plasma FGF21; conditions: 0.3 nmol/kg s.c., 26 hours after treatment
[6] = target: cynomolgus monkey GCGR; assay: cynomolgus monkey glucagon receptor cAMP assay; type: cell-based; conditions: HEK293 cells
Method: as §3

[7] = Weight loss in DIO mice, chronic dosing: body weight; type: in vivo, mouse; conditions: 0.3 nmol/kg s.c. every day
Method: as §1, §2

[8] = Single-dose efficacy in DIO mice: IPGTT, fasting glucose, insulin; conditions: 0.3 nmol/kg s.c.
[9] = target: T3, rat GCGR (Rattus norvegicus, UniProt P30082); assay: rat glucagon receptor cAMP assay; type: cell-based; conditions: HEK293 cells
T3 construct: expressed in transfected cells
Method: as §3

[10] = target: T4, mouse GLP1R (Mus musculus, UniProt O35659); assay: mouse GLP1 receptor cAMP assay; type: cell-based; conditions: HEK293 cells
T4 construct: expressed in transfected cells
T4 sequence (O35659 22-463): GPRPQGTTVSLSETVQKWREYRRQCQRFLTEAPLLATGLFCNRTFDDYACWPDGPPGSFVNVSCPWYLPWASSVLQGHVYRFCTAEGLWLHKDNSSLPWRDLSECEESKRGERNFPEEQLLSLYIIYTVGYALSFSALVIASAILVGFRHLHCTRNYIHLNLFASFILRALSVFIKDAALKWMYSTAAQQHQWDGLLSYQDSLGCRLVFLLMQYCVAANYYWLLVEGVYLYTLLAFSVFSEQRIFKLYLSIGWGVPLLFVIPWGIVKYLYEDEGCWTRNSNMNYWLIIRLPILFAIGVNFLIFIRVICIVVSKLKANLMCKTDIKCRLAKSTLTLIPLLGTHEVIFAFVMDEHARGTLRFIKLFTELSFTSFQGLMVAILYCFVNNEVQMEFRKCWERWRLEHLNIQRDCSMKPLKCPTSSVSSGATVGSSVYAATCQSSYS
Method: as §3

[11] = Repeat dosing in DIO mice: fasting glucose, insulin, FGF21, plasma lipids; type: in vivo, mouse; conditions: 0.3 nmol/kg s.c. daily
Method: To control for the dosing frequency, all animals were dosed daily. Dosing frequency was determined on the basis of DIO mouse PK data for compound 2 and dulaglutide. Animals in the dulaglutide group received this drug daily. The vehicle-treated animals received vehicle daily. […] The day prior to initiating of dosing, animals were weighed and grouped by body weight. […].
Beginning 24-hr after the first dosing, three groups of mice were pair-fed (PF) to the 1.0, 2.0, or 4.0 nmol/kg compound 2-treated animals. The amount of food in the hopper of pair-fed mice was adjusted to match the average food consumed in the previous 24 hours by mice in the compound treatment group to which they were being matched. All PF groups were dosed daily with vehicle. On the ninth day (or Day 10 for the pair-fed groups), animals were fasted for 6 hours and body weight and fasting glucose were measured. Blood was collected for measurements of insulin, FGF21 and plasma lipids. The food intake, body weight, body composition, fasting glucose, fasting insulin, fasting FGF21, and fasting plasma lipid data are shown in tables 20-26.

[12] = Fed blood glucose after 8 days of treatment in DIO mice; type: in vivo, mouse; conditions: 0.3 nmol/kg s.c. every day
Method: as §1, §2

T3 sequence (P30082 27-485): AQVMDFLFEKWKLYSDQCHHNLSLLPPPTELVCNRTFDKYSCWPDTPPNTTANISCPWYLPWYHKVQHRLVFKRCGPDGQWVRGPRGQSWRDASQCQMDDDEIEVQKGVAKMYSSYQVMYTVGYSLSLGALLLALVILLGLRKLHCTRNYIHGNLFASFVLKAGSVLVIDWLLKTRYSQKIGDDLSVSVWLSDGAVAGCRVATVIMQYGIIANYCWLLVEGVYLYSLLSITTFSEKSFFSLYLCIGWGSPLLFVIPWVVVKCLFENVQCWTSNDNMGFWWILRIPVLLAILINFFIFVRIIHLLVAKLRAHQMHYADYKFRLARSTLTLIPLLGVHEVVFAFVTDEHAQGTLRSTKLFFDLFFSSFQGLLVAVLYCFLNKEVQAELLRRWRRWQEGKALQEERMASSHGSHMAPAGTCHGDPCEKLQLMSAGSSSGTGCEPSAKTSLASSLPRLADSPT
T2 sequence (Q61606 27-485): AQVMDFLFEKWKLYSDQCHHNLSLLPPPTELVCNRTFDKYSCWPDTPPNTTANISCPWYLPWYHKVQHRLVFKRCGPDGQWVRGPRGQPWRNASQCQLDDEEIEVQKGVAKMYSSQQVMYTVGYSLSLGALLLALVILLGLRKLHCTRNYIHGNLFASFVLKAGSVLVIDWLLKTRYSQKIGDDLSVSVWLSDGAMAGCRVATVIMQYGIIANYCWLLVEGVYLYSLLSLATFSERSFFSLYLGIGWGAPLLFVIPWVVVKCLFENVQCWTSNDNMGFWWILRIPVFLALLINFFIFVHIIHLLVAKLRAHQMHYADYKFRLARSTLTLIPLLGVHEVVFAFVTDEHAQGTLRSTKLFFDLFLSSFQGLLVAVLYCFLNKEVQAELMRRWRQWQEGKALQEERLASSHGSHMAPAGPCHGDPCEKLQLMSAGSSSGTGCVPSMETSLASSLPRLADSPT
T1 sequence (P47871 26-477): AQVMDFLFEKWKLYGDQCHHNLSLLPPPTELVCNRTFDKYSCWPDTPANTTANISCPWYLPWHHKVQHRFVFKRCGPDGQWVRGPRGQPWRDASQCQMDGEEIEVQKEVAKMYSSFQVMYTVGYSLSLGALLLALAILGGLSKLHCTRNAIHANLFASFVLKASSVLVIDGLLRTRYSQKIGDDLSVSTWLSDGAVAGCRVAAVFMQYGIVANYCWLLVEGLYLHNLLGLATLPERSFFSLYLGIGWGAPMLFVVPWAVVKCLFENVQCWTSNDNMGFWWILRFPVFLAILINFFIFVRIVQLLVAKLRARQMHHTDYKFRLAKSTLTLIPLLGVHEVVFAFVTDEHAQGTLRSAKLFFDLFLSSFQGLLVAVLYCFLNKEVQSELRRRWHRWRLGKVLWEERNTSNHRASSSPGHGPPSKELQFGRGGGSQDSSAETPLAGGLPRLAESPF

Dulaglutide: the GLP1R agonist, dulaglutide [reference compound]
blood glucose Delta AUC (OGTT) [1]: 6668 ± 1846 mg/dl/120 min
blood glucose Total AUC (OGTT) [1]: 15758 ± 1054 mg/dl/120 min
blood glucose during OGTT ([1]; 0 min after glucose challenge): 76 ± 9 mg/dL
insulin during OGTT ([1]; 0 min after glucose challenge): 0.6 ± 0.1 ng/mL
blood glucose during OGTT ([1]; 30 min after glucose challenge): 151 ± 14 mg/dL
insulin during OGTT ([1]; 30 min after glucose challenge): 1.7 ± 0.2 ng/mL
blood glucose during OGTT ([1]; 60 min after glucose challenge): 174 ± 17 mg/dL
blood glucose during OGTT ([1]; 90 min after glucose challenge): 104 ± 10 mg/dL
insulin during OGTT ([1]; 90 min after glucose challenge): 0.7 ± 0.2 ng/mL
blood glucose during OGTT ([1]; 120 min after glucose challenge): 119 ± 9 mg/dL
EC50 [2]: > 100 nM
food intake ([3]; 0.3 nmol/kg group, 24 hours pre-dose): 3.1 ± 0.1 grams
Weight Change ([3]; single s.c. dose 0.3 nmol/kg, 18 hours after treatment): −4.1 ± 0.3 %
food intake ([3]; single s.c. dose 0.3 nmol/kg, 18 hours post-dose): 1.5 ± 0.1*^ grams
EC50 [4]: > 100 nM
Plasma FGF21 [5]: 0.8 ± 0.2 ng/mL
EC50 [6]: > 100 nM
body weight ([7]; day 0): 45.9 ± 0.6 g
body weight ([7]; day 1): 44.1 ± 0.6 g
body weight ([7]; day 2): 42.2 ± 0.6 g
body weight ([7]; day 3): 40.6 ± 0.6 g
body weight ([7]; day 4): 39.3 ± 0.6 g
body weight ([7]; day 5): 38.1 ± 0.7 g
body weight ([7]; day 6): 37.1 ± 0.8 g
body weight ([7]; day 7): 36.4 ± 1.0 g
body weight ([7]; day 8): 36.5 ± 1.1 g
body weight ([7]; day −1): 46.3 ± 0.6 g
Plasma Insulin ([8]; 10 minutes post-glucose (IPGTT)): 1.7 ± 0.2 ng/mL
6 hour fasting Blood Glucose ([8]; 24 hours after treatment): 140 ± 7 mg/dL
Blood Glucose Net AUC (IPGTT) ([8]; 24 hours after treatment): 8471 ± 1204
blood glucose during IPGTT ([8]; 24 hours after treatment, 0 min): 140 ± 7 mg/dL
blood glucose during IPGTT ([8]; 24 hours after treatment, 10 min): 264 ± 18 mg/dL
blood glucose during IPGTT ([8]; 24 hours after treatment, 30 min): 267 ± 22 mg/dL
blood glucose during IPGTT ([8]; 24 hours after treatment, 60 min): 228 ± 12 mg/dL
blood glucose during IPGTT ([8]; 24 hours after treatment, 90 min): 193 ± 9 mg/dL
Plasma Insulin ([8]; Pre-glucose (24 hours after treatment)): 1.6 ± 0.2 ng/mL
EC50 [9]: > 100 nM
EC50 [10]: 0.035 ± 0.002 nM
plasma Free Fatty Acids ([11]; after repeated dosing): 73.2 ± 12.0 µmol/L
plasma Free Glycerol ([11]; after repeated dosing): 0.5 ± 0.1 mmol/L
plasma Total cholesterol ([11]; after repeated dosing): 146.1 ± 3.3 mg/dL
plasma Triglycerides ([11]; after repeated dosing): 24.1 ± 2.3 mg/dL
6 hour fasting Blood Glucose ([11]; after repeated dosing (9 days)): 123 ± 5 mg/dL
6 hour fasting Plasma Insulin ([11]; after repeated dosing (9 days)): 1.4 ± 0.2 ng/mL
6 hour fasting plasma FGF21 ([11]; after repeated dosing (9 days)): 0.5 ± 0.1 ng/mL
fed Blood Glucose [12]: 114 ± 13 mg/dL
